Laboratory results as given in patent US20110028539A1, “Biologically active taxane analogs and methods of treatment” (Tapestry Pharmaceuticals, Inc., priority 2007, published 2011).
Blank lines part the entries; values can stand above or below the compound they belong to.

What was measured:
[1] = tested on: bovine microtubule protein (tubulin plus MAP); assay: In vitro ED50 MT polymerization study (DAPI fluorescence tubulin assay); format: biochemical; details: for ED50 Compound/ED50 Paclitaxel: ratio of tubulin polymerization ED50 to that of paclitaxel; for EC50: tubulin polymerization, 37° C., 30 minutes, maximum assembly = 25 μM paclitaxel
Method: In this tubulin binding assay, microtubule protein (MTP) is used as a substrate. The assay contains bovine tubulin plus microtubule associated proteins (MAP). MTP is polymerized into microtubules in the presence of DAPI (4′,6′-diamidino-2-phenylindole), a fluorescent compound. DAPI binds to tubulin; when microtubules are formed and there is an enhancement of fluorescence. The microtubule formation is measured as a function of time, using a fluorescence plate reader. […] The method used is based on the procedure published by Donna M. Barron, et al, “Fluorescence-based high-throughput assay for antimicrotuble drugs” Analytical Biochemistry, 315: 49-56, 2003, which is incorporated by reference in its entirety. The excitation wavelength, in that assay, was set at 370 nm and the emission wavelength was set at 450 nm for the DAN experiments.
A Bio-Tek FL 600 microplate Fluorescence used to measure the relative level of fluorescence in the DAPI assay.
Assays were conducted in 96-well plates. Each well contained a total volume of 0.1 mL consisting of PEM buffer (0.1 M Pipes, 1 mM EGTA, 1 mM MgCl2, pH 6.9), 0.2 mg bovine microtubule protein, and 10 μg of DAPI. […] The final DMSO concentration was 4%. The plates were incubated at 37° C. for 30 minutes and read in a fluorescence plate reader using an excitation wavelength of 360 nm and an emission wavelength of 460 nm. Fluorescence values were corrected for the sample without compound.
Experiments were done twice in triplicate. Results were subsequently combined and fit to a non-linear regression program.

[2] = tested on: Breast Cancer MCF-7 NCI-AR; assay: Inhibition of cell growth, breast cancer MCF-7 NCI-AR (MDR+, wild type tubulin); format: cell-based; details: Homo sapiens
From the text: (§1) Of note is the top part of the molecule illustrated above, which may be seen to have a 9-keto structure and 10-β hydroxy or 10-β acetoxy stereochemistry. The present application provides novel taxane analogs having a stereochemistry at the C-9 and C-10 OH positions of the molecule.

[3] = tested on: Ovarian Carcinoma 1A9PTX10; assay: Inhibition of cell growth, ovarian carcinoma 1A9PTX10 (MDR-, mutant tubulin); format: cell-based; details: Homo sapiens, 1A9/ptx-10
From the text: as §1

prostate PC-3 = assay: MTS proliferation assay, PC-3; format: cell-based; details: prostate PC-3, MTS, 48 to 72 hrs
Method: (§2) Day 1: Cells were plated in appropriate growth medium at 5×10^3 per well in 100 ul in 96 well tissue culture plates, Falcon, one for each drug to be tested. Col 1 was blank; it contained no cells, just medium. The plates were incubated overnight at 37° C., 5% CO2 to allow attachment,
(§3) Day 2: Added 120 ul growth medium in wells of 96-well “dilution plates” (one for each drug) and let sit in 37° C. incubator for about 1 hr.
(§4) Thawed DMSO drug stocks (usually at 10 mM). Each drug was diluted 6 ul into a tube with 3 ml growth medium, to 20 uM.
(§5) Aspirated medium from col 12 of a dilution plate; added 200-300 ul of 20 uM drug to wells of col 12. Made serial dilution down this 96-well plate: for a […] dilution pattern, moved 60 ul from col 12 to col 11, mixed 4-5 times (using 8 place multi-pipettor), moved 60 ul to col 10, etc. stopping at col 3.
(§6) Moved 100 ul of medium+drug from dilution plate to a cell plate, i.e. col 1 from drug plate (blank=no cells) to col 1 of cell plate, etc. up to col 12. Col 2 contained cells with no drug. Col 3 had the lowest concentration of drug (0.005 nM) and col 12 had the highest drug concentration (10 uM).
(§7) Day 4 or 5: Terminated the assay 48 to 72 hrs after drug addition. […] When the color turned dark in control wells (col 2), and was still light in col 12, the absorbance at 490 nm was read on a plate reader; the results were used to calculate IC50.

breast MDA435s = assay: MTS proliferation assay, MDA435s; format: cell-based; details: 48 to 72 hrs
Method: as §2, §3, §4, §5, §6, §7

head/neck FADU = assay: MTS proliferation assay, FADU; format: cell-based; details: Homo sapiens, 48 to 72 hrs
Method: as §2, §3, §4, §5, §6, §7

uterine MESSA/Dox (MDR+) = assay: MTS proliferation assay, MESSA/Dox (MDR+); format: cell-based; details: Homo sapiens, MES-SA, 48 to 72 hrs
Method: as §2, §3, §4, §5, §6, §7

[4] = Biological evaluation of separated isomers of Formula 48 (activity comparison); details: separated diastereoisomer vs mixture
head/neck KBV (MDR+) = assay: MTS proliferation assay, KBV (MDR+); format: cell-based; details: 48 to 72 hrs
Method: as §2, §3, §4, §5, §6, §7

uterine MESSA = assay: MTS proliferation assay, MESSA; format: cell-based; details: Homo sapiens, MES-SA, 48 to 72 hrs
Method: as §2, §3, §4, §5, §6, §7

colon HT29 = assay: MTS proliferation assay, HT29; format: cell-based; details: Homo sapiens, HT-29, 48 to 72 hrs
Method: as §2, §3, §4, §5, §6, §7

Neuroblastoma SKNAS = assay: MTS proliferation assay, SKNAS; format: cell-based; details: Homo sapiens, SK-N-AS, 48 to 72 hrs
Method: as §2, §3, §4, §5, §6, §7

head/neck KB = assay: MTS proliferation assay, KB; format: cell-based; details: 48 to 72 hrs
Method: as §2, §3, §4, §5, §6, §7

prostate DU145 = assay: MTS proliferation assay, DU145; format: cell-based; details: Homo sapiens, DU-145, 48 to 72 hrs
Method: as §2, §3, §4, §5, §6, §7

[5] = tested on: Squamous Cell Carcinoma FADU; assay: Inhibition of cell growth, squamous cell carcinoma FADU; format: cell-based; details: Homo sapiens, concentration 0.05 ug/mL
From the text: as §1

Neuroblastoma SK-N-AS = assay: Inhibition of cell growth, neuroblastoma SK-N-AS; format: cell-based; details: Homo sapiens, concentration 0.1 ug/mL
From the text: as §1

- EC50 [1]: 3180 ± 450 nM
Structure (SMILES): CC(=O)O[C@@]12CO[C@@H]1C[C@H](O)[C@@]1(C)C(=O)[C@H](O)C3=C(C)[C@@H](OC(=O)[C@H](O)[C@@H](NC(=O)OC(C)(C)C)c4ccccc4)C[C@@](O)([C@@H](OC(=O)c4ccccc4)[C@H]21)C3(C)C [Docetaxel]
- ED50 Compound/ED50 Paclitaxel [1]: 1.07

Structure (SMILES): C/C(=C\c1csc(C)n1)[C@@H]1C[C@@H]2O[C@]2(C)CCC[C@H](C)[C@H](O)[C@@H](C)C(=O)C(C)(C)[C@@H](O)CC(=O)O1 [Epothilone B]
- ED50 Compound/ED50 Paclitaxel [1]: 1.11
- EC50 [1]: 3310 ± 510 nM

Structure (SMILES): C=CC1O[C@H]2C[C@H]3OC[C@@]3(OC(C)=O)[C@H]3[C@H](OC(=O)c4ccccc4)[C@]4(O)C[C@H](OC(=O)[C@H](O)[C@@H](NC(=O)c5ccccc5)c5ccccc5)C(C)=C([C@H](OC(C)=O)[C@H](O1)[C@]23C)C4(C)C (some centres unmarked) [Formula 45]
- inhibition at 0.5 µg/mL ([2]; MCF7, concentration 0.5 ug/mL): 45%
- inhibition at 1 µg/mL ([2]; MCF7, concentration 1.0 ug/mL): 65%
- inhibition at 2 µg/mL ([2]; MCF7, concentration 2.0 ug/mL): 94%
- inhibition at 0.25 µg/mL ([3]; 1A9PTX10, concentration 0.25 ug/mL): 93%
- inhibition at 0.5 µg/mL ([3]; 1A9PTX10, concentration 0.5 ug/mL): 96%

- IC50 (prostate PC-3): 0.03 nM
- EC50 [1]: 1580 ± 460 nM
- IC50 (colon HT29): 0.006 nM
- IC50 (Neuroblastoma SKNAS): 11 nM
- IC50 (head/neck KB): 9.4 nM
- IC50 (prostate DU145): 60 nM
Structure (SMILES): C=C[C@H]1O[C@H]2C[C@H]3OC[C@@]3(OC(C)=O)[C@H]3[C@H](OC(=O)c4ccccc4)[C@]4(O)C[C@H](OC(=O)[C@H](O)[C@H](CC(C)C)NC(=O)OC(C)(C)C)C(C)=C([C@H](OC(C)=O)[C@H](O1)[C@]23C)C4(C)C [Formula S-31]
- IC50 (breast MDA435s): 10 nM
- ED50 Compound/ED50 Paclitaxel [1]: 0.53
- IC50 (head/neck FADU): 21 nM
- IC50 (uterine MESSA/Dox (MDR+)): 44.8 nM
- activity compared with the isomeric mixture (Formula 48) [4]: significantly more active than the isomeric mixture
- IC50 (head/neck KBV (MDR+)): 553 nM
- IC50 (uterine MESSA): 2.9 nM

Structure (SMILES): CC(=O)O[C@H]1C(=O)[C@@]2(C)[C@H]([C@H](OC(=O)c3ccccc3)[C@]3(O)C[C@H](OC(=O)[C@H](O)[C@@H](NC(=O)c4ccccc4)c4ccccc4)C(C)=C1C3(C)C)[C@]1(OC(C)=O)CO[C@@H]1C[C@@H]2O [Paclitaxel, reference compound]
- inhibition at 40 µg/mL ([2]; MCF7, concentration 40 ug/mL): 55%
- inhibition at 0.05 µg/mL [5]: 47%
- inhibition at 5 µg/mL ([3]; 1A9PTX10, concentration 5 ug/mL): 55%
- inhibition at 0.1 µg/mL (Neuroblastoma SK-N-AS): 54%
